{"source": "patent US11779600B2", "about": "“Methods of treating or preventing alzheimer's disease and associated conditions” (CEDARS-SINAI MEDICAL CENTER, priority 2016, dated 2023)", "test_system": "OPN", "test": "OPN expression in primary bone marrow-derived macrophages (qICC, ELISA)", "assay_type": "cell-based, mouse", "conditions": "for increase in OPN production/expression (qICC): without Aβ, vs untreated MΦ^BM (FIG. 14D)", "experimental": "For MΦ^BM cells, the cells in each well were lifted by 2 mM EDTA-PBS, collected in tubes, and centrifuged. Cell pellets were lysed and re-suspended in a cocktail of RIPA buffer supplemented with 1% protease inhibitors (Thermo Scientific), and stored at −80° C. until use.\nTo test amyloid-β phagocytosis by macrophage, in repeated experiments monocytes were isolated from the bone marrow of wild-type mice (n=18 mice) and differentiated into macro-phage by 7-day cultivation in complete RPMI-1640 medium (#21870; Life Technologies) with 10% serum and 20 ng/ml MCSF (#315-02; PeproTech). Bone marrow-derived macrophages (MΦBM) were generated from femurs and tibiae cultured for 6-7 days in complete RPMI 1640 medium (Life Technologies) with 10% FBS, 100 U/ml penicillin, 100 μg/ml streptomycin, 2 mM L-glutamine and 20 ng/ml MCSF (PeproTech). Primary cultures of macrophage were then plated at 1.2×10^5 cells per well (3-4 wells for each condition) in 24-well tissue-culture plates on glass cover-slips overnight. Next, macrophages were either treated with 30 μg/ml GA (Copaxone®; TEVA Neuroscience), Brefeldin A (BFA; Sigma, 1X), or 10 μM Minocycline (Sigma) for the duration of 1, 3, or 24 h, or not treated (control group). Before addition of fibrillar amyloid-β1-42, the cells were chilled in a 4° C. ice bath for 5 min; immediately after addition of the preformed fibrillar amyloid-β1-42 (100 nM), the plates were centrifuged at 515g in 25° C. followed by incubation at 37° C. for 30 or 60 min. The cells were then rinsed with amyloid-β-free medium to remove non-incorporated amyloid-β and later washed twice with PBS. Methanol (99.8%) at −20° C. for 20 min or 4% paraformaldehyde at room temperature for 12 min was used for fixation of the cells followed by repeated washes with PBS. For immunostaining, the cells were first stained using the mouse anti-human amyloid-β mAb clone 6E10 (1:100; SIG-39320; Covance), rat anti-CD68 mAb clone FA-11 (1:100; ab53444; Abcam), rat anti-CD36 mAb clone MF3 (1:200; ab80080; Abcam), rat anti-CD204 scavenger receptor type I/II (SCARA1) mAb (1:100; MCA1322; AbD Serotec), rabbit anti-CD163 pAb (1:100; orb13303; Biorbyt), and goat anti-MMP-9 pAb (1:100; AF909; R&D systems). Secondary polyclonal antibodies included donkey anti-mouse, anti-rat, anti-rabbit, and anti-goat conjugated with Cy2, Cy3 or Cy5 (1:200; Jackson ImmunoResearch Laboratories). The cells were mounted using ProLong® Gold with DAPI (Molecular Probes, Life Technologies). Several fields (minimum n=5 randomly selected per group) were obtained from each well using a Carl Zeiss Axio Imager Z1 ApoTome-equipped microscope (an average of 120 cells in each field). Images were obtained using the same exposure time in each occasion. The fluorescent signal and its total area were determined and quantified by the conversion of individual images to greyscale and standardizing to baseline using histogram-based thresholds with NIH ImageJ software. The ‘mean area per cell’ was a result of a numerical average of the individual cell's immunoreactive area per field. The ‘area/cell’ measures the total fluorescent signal (area) divided by the total number of cells (DAPI count) of the same field (image). For all experiments, the investigators were blinded to the treatment condition.\nTo investigate the impact of GA on OPN expression in macrophages, a series of in vitro studies using primary MΦ^BM was performed. BM was isolated from young WT donor mice, differentiated into mature macrophages, pretreated overnight with GA ([…]; GA-MΦ^BM) and exposed to pre-formed Aβ1-42 fibrils. […] Since MΦ^BM constitutively express and secrete OPN into the extracellular matrix, OPN production by inhibiting secretion with Brefeldin A (BFA) pretreatment was assessed (FIG. 14C). Indeed, newly generated OPN was trapped by BFA, increasing its intracellular accumulation. […] GA further elevated OPN production in BFA-pretreated MΦ^BM (FIG. 14C). […]"}
{"substance": "glatiramer acetate [GA]", "values": [{"measurement": "increase in OPN in GA-treated MΦ", "setting": "FIG. 5D", "value": 2, "unit": "fold"}, {"measurement": "increase of OPN expression in MΦ^BM", "setting": "GA pretreated, 100 nM fibrillar Aβ1-42 for 30 min, qICC and ELISA", "value": "2.3-2.7 fold"}, {"measurement": "increased OPN levels in cell lysates (ELISA)", "setting": "with BFA (FIG. 14E)", "value": 1.4, "unit": "fold"}, {"measurement": "increase in OPN production/expression (qICC)", "setting": "with BFA, GA overnight 30 µg/ml", "value": 1.6, "unit": "fold"}, {"measurement": "increased OPN levels in cell lysates (ELISA)", "setting": "without BFA (FIG. 14E)", "value": 2.3, "unit": "fold"}, {"measurement": "increase in OPN production/expression (qICC)", "setting": "without BFA, GA overnight", "value": 2.5, "unit": "fold"}]}
